Assay results taken from US11141452B2, “Bifunctional compounds for relief of pain comprising an opioid receptor agonist moiety and a NK1 receptor antagonist moiety and methods for treating pain” (THE ARIZONA BOARD OF REGENTS ON BEHALF OF THE UNIVERSITY OF …, priority 2014, dated 2021).
Values joined by “and” are separate entries in the source; they are usually repeats but may differ in a detail not shown here. Identical values can stand only once. Like-named read-outs stand apart in the source and are kept apart here. Non-standard residues stand in square brackets, D forms with d. Residues, ends and D or L forms follow the SMILES beside them. *: point of attachment. NH(3,5-(CF3)2-benzyl) = FC(F)(F)c1cc(CN*)cc(C(F)(F)F)c1; Dmt = Cc1cc(O)cc(C)c1C[C@H](N)C(=O)O; NMeF = CN[C@@H](Cc1ccccc1)C(=O)O

Assays:
MOR [1] = assay: Guinea pig isolated ileum (GPI) functional assay; format: cell-based
in vitro = conditions: rat, plasma
DOR [2] = target: T1, DOR (Mus musculus, UniProt P32300); assay: Mouse isolated vas deferens (MVD) functional assay; format: cell-based
T1 construct: Male ICR mice under CO2 anesthesia were sacrificed by cervical dislocation and the vasa differentia removed; from tissue; host or cells: mouse vas deferens (ICR mice)
T1 sequence (P32300 whole entry): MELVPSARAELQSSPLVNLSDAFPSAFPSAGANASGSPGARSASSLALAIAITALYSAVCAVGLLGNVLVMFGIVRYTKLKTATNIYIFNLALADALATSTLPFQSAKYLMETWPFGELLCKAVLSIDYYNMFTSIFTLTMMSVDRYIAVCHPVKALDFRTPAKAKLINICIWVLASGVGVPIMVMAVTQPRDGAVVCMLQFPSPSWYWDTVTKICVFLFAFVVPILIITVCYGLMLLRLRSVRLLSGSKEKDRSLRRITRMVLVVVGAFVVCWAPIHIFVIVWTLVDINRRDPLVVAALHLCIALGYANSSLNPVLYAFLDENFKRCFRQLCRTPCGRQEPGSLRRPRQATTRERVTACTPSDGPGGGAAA

MOR [3] = assay: Radioligand binding assay at μ opioid receptor; conditions: for Log[IC50±] (μ): log IC50 ± error; for Ki^μ/Ki^δ: ratio of binding affinities MOR/DOR
Protocol: (§1) Binding affinities of these ligands were measured on radioligand binding assays. […] ([43]).

DOR [4] = target: DOR (Homo sapiens, UniProt P41143); assay: Radioligand binding assay at δ opioid receptor; conditions: for Ki: Ki^δ (nM)
Sequence of DOR (Homo sapiens, UniProt P41143) (P41143 whole entry): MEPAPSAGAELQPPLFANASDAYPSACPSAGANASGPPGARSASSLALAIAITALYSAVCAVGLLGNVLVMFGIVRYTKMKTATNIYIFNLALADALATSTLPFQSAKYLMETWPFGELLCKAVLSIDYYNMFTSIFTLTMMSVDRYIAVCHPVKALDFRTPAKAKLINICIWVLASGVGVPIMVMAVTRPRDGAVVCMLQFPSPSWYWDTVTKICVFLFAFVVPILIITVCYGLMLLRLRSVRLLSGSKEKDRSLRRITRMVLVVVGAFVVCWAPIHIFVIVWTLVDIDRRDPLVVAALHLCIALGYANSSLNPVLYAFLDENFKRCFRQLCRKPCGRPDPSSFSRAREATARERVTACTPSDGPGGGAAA
Protocol: as §1

NK1R = target: T2, NK1R (Cavia porcellus, UniProt P30547); assay: GPI/LMMP functional assay at NK1R (agonist and antagonist testing); format: cell-based, guinea pig; conditions: for GPI/LMMP (NK1R) Agonist: agonist activity at the concentration in the cell
T2 construct: The longitudinal muscle with myenteric plexus (LMMP) was carefully separated from the circular muscle; from tissue; host or cells: guinea pig ileum longitudinal muscle with myenteric plexus
T2 sequence (P30547 whole entry): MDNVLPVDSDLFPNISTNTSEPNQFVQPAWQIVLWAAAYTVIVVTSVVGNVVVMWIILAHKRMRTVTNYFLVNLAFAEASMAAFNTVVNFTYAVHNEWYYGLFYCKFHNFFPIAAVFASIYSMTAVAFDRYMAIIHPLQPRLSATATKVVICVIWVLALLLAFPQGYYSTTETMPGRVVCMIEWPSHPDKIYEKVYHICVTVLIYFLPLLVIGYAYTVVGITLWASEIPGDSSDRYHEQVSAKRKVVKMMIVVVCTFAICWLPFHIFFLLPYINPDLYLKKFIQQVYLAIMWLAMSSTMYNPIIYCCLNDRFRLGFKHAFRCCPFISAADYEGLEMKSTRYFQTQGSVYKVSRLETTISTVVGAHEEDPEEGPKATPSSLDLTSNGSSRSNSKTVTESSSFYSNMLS

[5] = system: rats (acute thermal pain, paw withdrawal reflex)
[6] = system: mice (acute thermal pain, tail flick); assay: Tail flick latency, 52° C. water bath, after intrathecal injection; format: in vivo, mouse
Protocol: Tail flick latencies were re-assessed at up to 8 time points after administration. […] Mice with baseline TFLs<3 s or >9 s were excluded from the study.
For both studies, maximal percent efficacy was calculated and expressed as: % Antinociception=100*(test latency after drug treatment−baseline latency)/(cutoff−baseline latency) Statistics: Between group data were analyzed by non-parametric two-way analysis of variance (ANOVA; post hoc. Neuman-Kuels) in FlashCalc (Dr. Michael H. Ossipov, University of Arizona, Tucson, Ariz., USA). Within group data were analyzed by non-parametric one-way analysis of variance (ANOVA; post hoc: Bonferroni) in FlashCalc (Dr. Michael H. Ossipov, University of Arizona, Tucson, Ariz., USA). Differences were considered to be significant if P≤0.05.

hNK1 = target: T3, hNK1 (Homo sapiens, UniProt P25103); assay: hNK1/CHO cell membrane radioligand binding assay ([3H]SP); conditions: for Ki: Ki^hNK1 (nM), hNK1/CHO membranes, [3H]SP; for Ki^hNK1/Ki^rNK1: ratio human/rat NK1
T3 construct: expressed in transfected cells; host or cells: CHO
T3 sequence (P25103 whole entry): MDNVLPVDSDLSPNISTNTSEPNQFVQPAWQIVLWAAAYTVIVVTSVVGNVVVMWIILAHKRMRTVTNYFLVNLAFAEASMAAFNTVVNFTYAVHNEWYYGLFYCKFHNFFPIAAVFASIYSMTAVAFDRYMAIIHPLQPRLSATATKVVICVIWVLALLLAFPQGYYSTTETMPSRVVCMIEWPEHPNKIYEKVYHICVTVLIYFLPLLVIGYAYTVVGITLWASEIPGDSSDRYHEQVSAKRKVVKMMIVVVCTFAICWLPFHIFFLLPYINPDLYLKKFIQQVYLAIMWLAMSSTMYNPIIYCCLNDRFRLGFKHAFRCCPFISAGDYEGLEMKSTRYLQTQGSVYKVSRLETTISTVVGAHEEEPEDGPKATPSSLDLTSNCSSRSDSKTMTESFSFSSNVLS

rNK1 = rNK1 (Rattus norvegicus, UniProt P14600); assay: Radioligand binding assay at rat NK1 receptor; conditions: Ki^rNK1 (nM)
Sequence of rNK1 (P14600 whole entry): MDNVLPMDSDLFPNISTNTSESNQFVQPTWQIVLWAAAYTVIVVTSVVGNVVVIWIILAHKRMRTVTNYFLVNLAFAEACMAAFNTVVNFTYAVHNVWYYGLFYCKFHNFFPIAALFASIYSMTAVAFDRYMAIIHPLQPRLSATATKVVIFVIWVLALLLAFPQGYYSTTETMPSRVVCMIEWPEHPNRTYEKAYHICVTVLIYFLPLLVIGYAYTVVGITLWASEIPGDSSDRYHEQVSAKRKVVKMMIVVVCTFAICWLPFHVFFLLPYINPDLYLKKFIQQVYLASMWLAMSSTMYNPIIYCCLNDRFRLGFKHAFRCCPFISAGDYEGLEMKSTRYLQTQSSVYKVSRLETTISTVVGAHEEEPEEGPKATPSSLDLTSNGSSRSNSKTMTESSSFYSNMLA
Protocol: as §1

[7] = agonist activity, electrically stimulated tissue, read-out: GPI (MOR) IC50
[8] = MVD (DOR) IC50 (nM), agonist activity, electrically stimulated tissue
[9] = antagonist activity, read-out: GPI/LMMP (NK1R) Ke (nM) ± S.E.M.
[10] = head of Table IX, read-out: GPI (MOR) ID50
[11] = GPI/LMMP (NK1R) Ke (nM) ± S.E.M., antagonist activity

Cc1cc(O)cc(C)c1C[C@H](N)C(=O)N[C@H](C)C(=O)NCC(=O)N(C)[C@@H](Cc1ccccc1)C(=O)N1CCC[C@H]1C(=O)N[C@@H](CC(C)C)C(=O)N[C@@H](Cc1c[nH]c2ccccc12)C(=O)NCc1cc(C(F)(F)F)cc(C(F)(F)F)c1 [AKG115, H-Dmt-D-Ala-Gly-NMePhe-Pro-Leu-Trp-NH-Bn(3′,5′-(CF3)2)]
IC50 (MOR [1]; [7]): 21 nM and 20.6 nM | half-life (in vitro): > 24 h | IC50 (DOR [2]; [8]): 30.7 ± 7.5 nM | Ki (MOR [3]): 1 nM | Log[IC50±] (μ) (MOR [3]): −8.78 ± 0.05 | IC50 (DOR [4]): 12 nM | Kb (NK1R; [9]): 9.7 nM | maximal level of antinociception ([5]; 0.1 μg i.t.): minimal | motor skills ([5]; 10 μg in 5 μl): motor skills were impaired | Paw withdrawal latencies (PWLs) ([5]; spinal 0.1 μg in 5 μL, 60 min after the injection): not significantly higher than vehicle-treated rats and baseline values

Cc1cc(O)cc(C)c1C[C@H](N)C(=O)N[C@H](C)C(=O)NCC(=O)N[C@@H](Cc1ccc(F)cc1)C(=O)N1CCC[C@H]1C(=O)N[C@@H](CC(C)C)C(=O)N[C@@H](Cc1c[nH]c2ccccc12)C(=O)NCc1cc(C(F)(F)F)cc(C(F)(F)F)c1 [AKG127, H-Dmt-D-Ala-Gly-Phe(4-F)-Pro-Leu-Trp-NH-Bn(3′,5′-(CF3)2)]
IC50 (MOR [1]; [7]): 42 nM and 41.6 nM | half-life (in vitro): > 24 h | maximal level of antinociception (% antinociception) ([6]; 0.1 μg i.t.): approximately 70% | tail flick latencies (TFLs) ([6]; 0.1 μg in 5 μl, i.t., 60 min after injection): significantly higher than vehicle-treated mice and baseline values | higher agonist activity at DOR compared to MOR (functional assays) (DOR [2]): 21 times | IC50 (DOR [2]; [8]): 1.9 nM and 1.96 nM | Ki (MOR [3]): 1 nM | Log[IC50±] (μ) (MOR [3]): −8.72 ± 0.08 | Ki^μ/Ki^δ (MOR [3]): 1/1 | GPI/LMMP (NK1R) Agonist (NK1R): None at 30 nM | Kb (NK1R; [9]): 5.3 nM | Ki (hNK1): 1 nM | Ki^hNK1/Ki^rNK1 (hNK1): 1/33 | Ki (rNK1): 29.4 ± 1.5 nM

CC(C)C[C@H](NC(=O)[C@@H]1CCCN1C(=O)c1ccc(NC(=O)[C@H](Cc2ccccc2)N(C)C(=O)CNC(=O)[C@@H](C)NC(=O)[C@@H](N)Cc2ccc(O)cc2)cc1)C(=O)N[C@@H](Cc1c[nH]c2ccccc12)C(=O)NCc1cc(C(F)(F)F)cc(C(F)(F)F)c1 [AKG176, H-Tyr-D-Ala-Gly-NMePhe-4-Abz-Pro-Leu-Trp-NH-Bn(3′,5′-(CF3)2)]
GPI/MVD IC50 ratio (MOR [1]): 2/1 | IC50 (MOR [1]; [7]): 40.8 ± 8 nM | IC50 (DOR [2]): 22.8 ± 5.53 nM | Ki (MOR [3]): 1 nM | Log[IC50±] (μ) (MOR [3]): −8.69 ± 0.24 | Ki^μ/Ki^δ (MOR [3]): 1/82 | IC50 (DOR [4]): 182 nM | Ki (DOR [4]): 70 nM | Kb (NK1R): 117 ± 31.4 nM | GPI/LMMP (NK1R) Agonist (NK1R): None at 300 nM | Ki (hNK1): 5.3 nM | Ki^hNK1/Ki^rNK1 (hNK1): 1/19 | Ki (rNK1): 74 nM

CC(C)C[C@H](NC(=O)[C@@H]1CCCN1C(=O)[C@H](Cc1ccc(F)cc1)NC(=O)CNC(=O)[C@@H](C)NC(=O)[C@@H](N)Cc1ccc(O)cc1)C(=O)N[C@@H](Cc1c[nH]c2ccccc12)C(=O)NCc1cc(C(F)(F)F)cc(C(F)(F)F)c1 [AKG190, H-Tyr-D-Ala-Gly-Phe(4-F)-Pro-Leu-Trp-NH-Bn(3′,5′-(CF3)2)]
IC50 (MOR [1]; [7]): 65 nM and 64.8 nM | half-life (in vitro): < 2 h | higher agonist activity at DOR compared to MOR (functional assays) (DOR [2]): 5 times | IC50 (DOR [2]; [8]): 12.1 ± 4 nM | Ki (MOR [3]): 4 nM | Log[IC50±] (μ) (MOR [3]): −8.08 ± 0.10 | Ki^μ/Ki^δ (MOR [3]): 20/1 | binding selectivity for DOR over MOR (DOR [4]): 20 times | Ki (DOR [4]): 0.2 nM | GPI/LMMP (NK1R) Agonist (NK1R): None at 30 nM | Ki (hNK1): 5.61 ± 0.65 nM | Ki^hNK1/Ki^rNK1 (hNK1): 1/6

CC(C)C[C@H](NC(=O)[C@@H]1CCCN1C(=O)CNC(=O)[C@H](CO)NC(=O)[C@H](Cc1ccccc1)N(C)C(=O)CNC(=O)[C@@H](C)NC(=O)[C@@H](N)Cc1ccc(O)cc1)C(=O)N[C@@H](Cc1c[nH]c2ccccc12)C(=O)NCc1cc(C(F)(F)F)cc(C(F)(F)F)c1 [AKG-CRA-136] (H-Y[dA]G[NMeF]SGPLW-{NH(3,5-(CF3)2-benzyl)})
GPI/MVD IC50 ratio (MOR [1]): 5/1 | IC50 (MOR [1]; [10]): 108 ± 44.8 nM | IC50 (DOR [2]; [8]): 22.6 ± 2.07 nM | Ki (MOR [3]): 3 nM | Log[IC50±] (μ) (MOR [3]): −8.07 ± 0.18 | Ki^μ/Ki^δ (MOR [3]): 1/9 | IC50 (DOR [4]): 85.1 nM | Ki (DOR [4]): 38 nM | Kb (NK1R; [11]): 27.6 ± 2.9 nM | GPI/LMMP (NK1R) Agonist (NK1R): None at 100 nM | Ki (hNK1): 9.23 ± 1.38 nM | Ki^hNK1/Ki^rNK1 (hNK1): 1/17 | Ki (rNK1): 156 ± 2.33 nM

Cc1cc(O)cc(C)c1C[C@H](N)C(=O)N[C@H](C)C(=O)NCC(=O)N(C)[C@@H](Cc1ccccc1)C(=O)N[C@@H](CO)C(=O)NCC(=O)N1CCC[C@H]1C(=O)N[C@@H](CC(C)C)C(=O)N[C@@H](Cc1c[nH]c2ccccc12)C(=O)NCc1cc(C(F)(F)F)cc(C(F)(F)F)c1 [AKG-CRA-137] (H-[Dmt][dA]G[NMeF]SGPLW-{NH(3,5-(CF3)2-benzyl)})
GPI/MVD IC50 ratio (MOR [1]): 1/2 | IC50 (MOR [1]; [7]): 7.9 nM | IC50 (MOR [1]; [10]): 7.87 ± 2.57 nM | IC50 (DOR [2]; [8]): 16.4 ± 5.17 nM | Ki (MOR [3]): 0.7 nM | Log[IC50±] (μ) (MOR [3]): −8.82 ± 0.26 | IC50 (DOR [4]): 2.69 nM | Ki (DOR [4]): 1 nM | Kb (NK1R; [11]): 26.3 ± 5.7 nM | GPI/LMMP (NK1R) Agonist (NK1R): None at 100 nM | Ki (hNK1): 4.9 nM and 4.76 nM | Ki^hNK1/Ki^rNK1 (hNK1): 1/18 | Ki (rNK1): 87.5 nM

CSCC[C@H](NC(=O)[C@H](Cc1ccccc1)NC(=O)CNC(=O)[C@@H](C)NC(=O)[C@@H](N)Cc1c(C)cc(O)cc1C)C(=O)N1CCC[C@H]1C(=O)N[C@@H](CC(C)C)C(=O)N[C@@H](Cc1c[nH]c2ccccc12)C(=O)NCc1cc(C(F)(F)F)cc(C(F)(F)F)c1 [TY032, H-Dmt-D-Ala-Gly-Phe-Met-Pro-Leu-Trp-NH-Bn(3′,5′-(CF3)2), reference compound]
half-life (in vitro): > 6 h
